One compound from article PMC6934184, “Selective DNA-PKcs inhibition extends the therapeutic index of localized radiotherapy and chemotherapy” (The Journal of Clinical Investigation, 2019) can be followed below.

The target of this assay is T1, AMPK (A2/B2/G1) (Homo sapiens, UniProt P54646).
T1 construct: purchased Thermo Fisher Scientific (Life Technologies) SelectScreen
Briefly: SelectScreen LanthaScreen. The settings on record: read-out: % displacement. It counts as binding. In a few lines:
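SelectScreen broad panel; activity (Z'LYTE, Adapta) plus binding formats. ATP: Km app for CSF1R Z'LYTE; 10 for CAMK1 Adapta. Readout = % per kinase.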
On the technique in general: TR-FRET usually uses a lanthanide donor and a delayed reading to cut background.

Molecules are shown by their SMILES.

T1 sequence (P54646 whole entry): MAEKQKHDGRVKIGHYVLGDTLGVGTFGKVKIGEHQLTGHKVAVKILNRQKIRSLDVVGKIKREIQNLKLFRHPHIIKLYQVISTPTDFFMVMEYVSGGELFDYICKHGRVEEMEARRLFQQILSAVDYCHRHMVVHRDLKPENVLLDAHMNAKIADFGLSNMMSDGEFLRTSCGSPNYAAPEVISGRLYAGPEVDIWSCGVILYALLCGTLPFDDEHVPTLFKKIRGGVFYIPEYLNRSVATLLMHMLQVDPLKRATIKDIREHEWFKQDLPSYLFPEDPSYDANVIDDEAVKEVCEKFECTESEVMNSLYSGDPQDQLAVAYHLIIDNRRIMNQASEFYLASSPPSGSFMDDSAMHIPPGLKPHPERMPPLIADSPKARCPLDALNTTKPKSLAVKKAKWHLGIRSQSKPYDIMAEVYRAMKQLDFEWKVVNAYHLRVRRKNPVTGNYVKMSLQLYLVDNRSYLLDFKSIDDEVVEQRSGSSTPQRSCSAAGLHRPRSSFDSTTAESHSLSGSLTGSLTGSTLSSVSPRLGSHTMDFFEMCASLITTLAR
T1 sequence (O43741 whole entry partner): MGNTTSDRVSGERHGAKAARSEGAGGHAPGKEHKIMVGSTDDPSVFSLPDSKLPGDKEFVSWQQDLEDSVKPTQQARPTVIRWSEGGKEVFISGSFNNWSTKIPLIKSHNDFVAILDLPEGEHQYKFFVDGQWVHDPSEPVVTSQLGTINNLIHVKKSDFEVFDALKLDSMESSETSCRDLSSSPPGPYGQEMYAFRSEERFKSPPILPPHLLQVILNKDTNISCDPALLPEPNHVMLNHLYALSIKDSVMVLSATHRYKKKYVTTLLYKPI
T1 sequence (P54619 whole entry partner): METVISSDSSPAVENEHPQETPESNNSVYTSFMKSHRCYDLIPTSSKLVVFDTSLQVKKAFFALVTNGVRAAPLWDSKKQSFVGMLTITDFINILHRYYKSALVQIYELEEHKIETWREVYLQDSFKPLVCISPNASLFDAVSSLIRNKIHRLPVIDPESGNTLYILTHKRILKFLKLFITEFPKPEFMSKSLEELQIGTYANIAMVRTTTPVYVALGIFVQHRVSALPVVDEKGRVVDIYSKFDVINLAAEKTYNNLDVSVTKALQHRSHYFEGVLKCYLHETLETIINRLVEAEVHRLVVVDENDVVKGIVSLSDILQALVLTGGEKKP

With `CN(C(=O)CN1CCOCC1)c1ccc2sc3c(-c4cccc5c(=O)cc(N6CC7CCC(C6)O7)oc45)cccc3c2c1` [NU5455], the inhibition at 1 µM is -2.3%.
